From the NIST ThermoML archive (doi:10.1016/j.fluid.2005.06.010)

Experiment: xn = mol fraction of the nth substance listed
Conditions: Fluid (supercritical or subcritical phases), Vibrating tube method

c1ccc2ccccc2c1 [naphthalene] + O=C=O
Conditions	mass density [kg/m3]
327.98 K, 20991 kPa, x1 = 0.0276	810.47
327.98 K, 22012 kPa, x1 = 0.0276	819.85
327.98 K, 23092 kPa, x1 = 0.0276	829.12
327.98 K, 23996 kPa, x1 = 0.0276	836.33
327.98 K, 24882 kPa, x1 = 0.0276	843.08
327.99 K, 11253 kPa, x1 = 0.0049	476.13
327.99 K, 11541 kPa, x1 = 0.0049	502.2
327.99 K, 12000 kPa, x1 = 0.0049	538.29
327.99 K, 13016 kPa, x1 = 0.0049	598.5
327.99 K, 14020 kPa, x1 = 0.0049	639.93
327.99 K, 15009 kPa, x1 = 0.0049	671.01
327.99 K, 16051 kPa, x1 = 0.0049	696.96
327.99 K, 16996 kPa, x1 = 0.0049	716.42
327.99 K, 18024 kPa, x1 = 0.0049	734.62
327.99 K, 18955 kPa, x1 = 0.0394	812.97
327.99 K, 19015 kPa, x1 = 0.0049	750.05
327.99 K, 19491 kPa, x1 = 0.0394	818.42
327.99 K, 20015 kPa, x1 = 0.0394	823.07
327.99 K, 20048 kPa, x1 = 0.0049	764.24
327.99 K, 20960 kPa, x1 = 0.0394	831.55
327.99 K, 21025 kPa, x1 = 0.0049	776.39
327.99 K, 22010 kPa, x1 = 0.0394	840.78
327.99 K, 22049 kPa, x1 = 0.0049	788
327.99 K, 23023 kPa, x1 = 0.0049	798.13
327.99 K, 23040 kPa, x1 = 0.0394	848.69
327.99 K, 24009 kPa, x1 = 0.0394	855.98
327.99 K, 24079 kPa, x1 = 0.0049	808.33
327.99 K, 24881 kPa, x1 = 0.0394	861.95
328 K, 12017 kPa, x1 = 0.0093	567.42
328 K, 12517 kPa, x1 = 0.0093	596.95
328 K, 12987 kPa, x1 = 0.0173	652.9
328 K, 13018 kPa, x1 = 0.0144	638.84
328 K, 13022 kPa, x1 = 0.0093	621.23
328 K, 13497 kPa, x1 = 0.0144	656.68
328 K, 13513 kPa, x1 = 0.0173	670.93
328 K, 13916 kPa, x1 = 0.0235	697.69
328 K, 14000 kPa, x1 = 0.0144	672.81
328 K, 14016 kPa, x1 = 0.0173	685.86
328 K, 14033 kPa, x1 = 0.0093	659.25
328 K, 14510 kPa, x1 = 0.0235	712.23
328 K, 14988 kPa, x1 = 0.0235	722.58
328 K, 15031 kPa, x1 = 0.0173	710.98
328 K, 15041 kPa, x1 = 0.0093	688.02
328 K, 15044 kPa, x1 = 0.0144	700.6
328 K, 16003 kPa, x1 = 0.0235	741.93
328 K, 16024 kPa, x1 = 0.0093	710.6
328 K, 16029 kPa, x1 = 0.0173	731.18
328 K, 16033 kPa, x1 = 0.0144	721.87
328 K, 17009 kPa, x1 = 0.0144	739.63
328 K, 17031 kPa, x1 = 0.0093	730
328 K, 17033 kPa, x1 = 0.0173	748.41
328 K, 17036 kPa, x1 = 0.0235	758.59
328 K, 18019 kPa, x1 = 0.0235	772.44
328 K, 18021 kPa, x1 = 0.0144	755.54
328 K, 18047 kPa, x1 = 0.0173	763.56
328 K, 18057 kPa, x1 = 0.0093	747.01
328 K, 19027 kPa, x1 = 0.0235	785.16
328 K, 19029 kPa, x1 = 0.0173	776.56
328 K, 19034 kPa, x1 = 0.0144	769.62
328 K, 19042 kPa, x1 = 0.0093	761.34
328 K, 20006 kPa, x1 = 0.0093	774.02
328 K, 20013 kPa, x1 = 0.0173	788.3
328 K, 20015 kPa, x1 = 0.0235	796.35
328 K, 20048 kPa, x1 = 0.0144	782.23
328 K, 21013 kPa, x1 = 0.0093	785.89
328 K, 21023 kPa, x1 = 0.0235	806.8
328 K, 21036 kPa, x1 = 0.0173	799.42
328 K, 21043 kPa, x1 = 0.0144	793.46
328 K, 22023 kPa, x1 = 0.0235	816.35
328 K, 22030 kPa, x1 = 0.0144	803.66
328 K, 22034 kPa, x1 = 0.0093	796.9
328 K, 22064 kPa, x1 = 0.0173	809.6
328 K, 23029 kPa, x1 = 0.0173	818.53
328 K, 23041 kPa, x1 = 0.0235	825.35
328 K, 23052 kPa, x1 = 0.0093	807.08
328 K, 23065 kPa, x1 = 0.0144	813.57
328 K, 24012 kPa, x1 = 0.0144	821.99
328 K, 24037 kPa, x1 = 0.0235	833.62
328 K, 24065 kPa, x1 = 0.0093	816.43
328 K, 24082 kPa, x1 = 0.0173	827.53
328 K, 24770 kPa, x1 = 0.0144	828.36
328 K, 24838 kPa, x1 = 0.0173	833.72
328 K, 25066 kPa, x1 = 0.0235	841.58
328 K, 25067 kPa, x1 = 0.0093	825.06
328.08 K, 11635 kPa, x1 = 0.0065	518.62
